Data: article PMC8903829 (eLife, 2022)
“And” between values parts separate entries of the source, which are not always exact repeats. Identical values can stand only once. “Also recorded” adds a separate entry of the source.

Columns and labels:
Format in all cases: cell-based
[1] = tested on: glutamatergic pyramidal neurons from mouse layer five neocortex; experiment: Current-clamp recording in brain slices, action-potential firing; details: for WT Cortical pyramidal neurons APs/1s: 0.25 μM, individual neurons; for Cumulative number of action potentials fired by each cell on increasing current injections: 250 nM, WT cortical pyramidal neurons
Procedure: Parasagittal cortical brain slices were prepared from> P21 mice using standard procedures (adapted from Tai et al., PNAS 2014). Briefly, the mouse was deeply anaesthetized with isoflurane and decapitated. The brain was removed and placed into chilled artificial cerebrospinal fluid (aCSF) solution containing (in mM): 125 NaCl, 25 NaHCO3, 2.5 KCl, 1.25 NaH2PO4, 2 CaCl2, 2 MgCl2, 10 d-glucose, pH 7.3, osmolarity adjusted to ~306 mOsm using sucrose. All solutions were saturated with 95% O2 and 5% CO2 constantly perfused with 95% O2/5% CO2. Slices with a thickness of 400 µm were prepared using a vibratome (Ted Pella, Inc). Following sectioning, the slices were placed in a holding chamber and incubated in a water bath at 34 °C for 15 min. The brain slices were removed from the water bath and held at room temperature for 60 min prior to recording.
All experiments involving rodent subjects were performed in accordance with the guidelines of the Canadian Council on Animal Care (CCAC). Following a 60-min incubation at room temperature, a brain slice was selected and placed on the stage of an upright microscope (SliceScope Pro 2000, Scientifica). The slice was constantly perfused with room temperature aCSF, containing 0.1% DMSO as a vehicle control, and oxygenated with 95% O2/5% CO2.The slice was visualized using brightfield microscopy, and a healthy neuron was selected from neocortical layer 5. […] Stimulation was applied in current-clamp mode, and consisted of a series of 1000ms square pulses, beginning at –20 pA and increasing by +20 pA increments (3000ms between pulses).
The slice was incubated in circulating compound for 10 min before repeating the series of square pulse stimulations. Working stock solutions were prepared in DMSO at a concentration of 20 mM.
All data analysis was done offline using ClampFit 10.7 (Molecular Devices). Data are presented as a mean ± SEM. For each sweep, the number of evoked APs was counted, and plotted as a function of current injection (beginning with –20 pA). […] Statistical significance was assessed using paired, two-way, student’s t-test applied at each current injection level with significance considered p < 0.05.

hNaV1.6 = molecular target: T1, hNaV1.6 (Homo sapiens, UniProt Q9UQD0); experiment: Automated patch-clamp, rested state 'Peak' current (Vh -120 mV)
T1 construct: expression vector containing the full-length cDNA coding for specific human and mouse sodium channel α-subunit; expressed in transfected cells
Description: Holding the membrane potential at –120 mV induces most channels to reside in the resting state. […] Holding the membrane potential at –45 mV encourages channels to transition into inactivated states. Brief hyperpolarizations allow rapid recovery from inactivation for channels that are not bound to drug followed by a short 20ms test pulse to –20 mV to measure currents from unbound channels (see Materials and methods for details).
(§1) Inorm(CPD)=(ICPD−Icontrol)/(ITTX−Icontrol).

[2] = molecular target: T2, N1768D NaV1.6 persistent currents (Homo sapiens, UniProt Q9UQD0, N1768D); experiment: Persistent current inhibition
T2 construct: expression vector containing the full-length cDNA coding for specific human and mouse sodium channel α-subunit; expressed in transfected cells; host or cells: Expi293F (transient, tetracycline-induced, pcDNA4/TO)
Description: Elevated persistent and or resurgent currents are believed to underlie or contribute to the pathology of many sodium channel related pathologies ([Mason et al., 2019]; [Pan and Cummins, 2020]; [Potet et al., 2020]; [Tidball et al., 2020]; [Zaman et al., 2019]). In most conditions, normal NaV1.6 channels inactivate rapidly and nearly completely after opening.
as §1

T2 sequence (Q9UQD0 whole entry N1768D): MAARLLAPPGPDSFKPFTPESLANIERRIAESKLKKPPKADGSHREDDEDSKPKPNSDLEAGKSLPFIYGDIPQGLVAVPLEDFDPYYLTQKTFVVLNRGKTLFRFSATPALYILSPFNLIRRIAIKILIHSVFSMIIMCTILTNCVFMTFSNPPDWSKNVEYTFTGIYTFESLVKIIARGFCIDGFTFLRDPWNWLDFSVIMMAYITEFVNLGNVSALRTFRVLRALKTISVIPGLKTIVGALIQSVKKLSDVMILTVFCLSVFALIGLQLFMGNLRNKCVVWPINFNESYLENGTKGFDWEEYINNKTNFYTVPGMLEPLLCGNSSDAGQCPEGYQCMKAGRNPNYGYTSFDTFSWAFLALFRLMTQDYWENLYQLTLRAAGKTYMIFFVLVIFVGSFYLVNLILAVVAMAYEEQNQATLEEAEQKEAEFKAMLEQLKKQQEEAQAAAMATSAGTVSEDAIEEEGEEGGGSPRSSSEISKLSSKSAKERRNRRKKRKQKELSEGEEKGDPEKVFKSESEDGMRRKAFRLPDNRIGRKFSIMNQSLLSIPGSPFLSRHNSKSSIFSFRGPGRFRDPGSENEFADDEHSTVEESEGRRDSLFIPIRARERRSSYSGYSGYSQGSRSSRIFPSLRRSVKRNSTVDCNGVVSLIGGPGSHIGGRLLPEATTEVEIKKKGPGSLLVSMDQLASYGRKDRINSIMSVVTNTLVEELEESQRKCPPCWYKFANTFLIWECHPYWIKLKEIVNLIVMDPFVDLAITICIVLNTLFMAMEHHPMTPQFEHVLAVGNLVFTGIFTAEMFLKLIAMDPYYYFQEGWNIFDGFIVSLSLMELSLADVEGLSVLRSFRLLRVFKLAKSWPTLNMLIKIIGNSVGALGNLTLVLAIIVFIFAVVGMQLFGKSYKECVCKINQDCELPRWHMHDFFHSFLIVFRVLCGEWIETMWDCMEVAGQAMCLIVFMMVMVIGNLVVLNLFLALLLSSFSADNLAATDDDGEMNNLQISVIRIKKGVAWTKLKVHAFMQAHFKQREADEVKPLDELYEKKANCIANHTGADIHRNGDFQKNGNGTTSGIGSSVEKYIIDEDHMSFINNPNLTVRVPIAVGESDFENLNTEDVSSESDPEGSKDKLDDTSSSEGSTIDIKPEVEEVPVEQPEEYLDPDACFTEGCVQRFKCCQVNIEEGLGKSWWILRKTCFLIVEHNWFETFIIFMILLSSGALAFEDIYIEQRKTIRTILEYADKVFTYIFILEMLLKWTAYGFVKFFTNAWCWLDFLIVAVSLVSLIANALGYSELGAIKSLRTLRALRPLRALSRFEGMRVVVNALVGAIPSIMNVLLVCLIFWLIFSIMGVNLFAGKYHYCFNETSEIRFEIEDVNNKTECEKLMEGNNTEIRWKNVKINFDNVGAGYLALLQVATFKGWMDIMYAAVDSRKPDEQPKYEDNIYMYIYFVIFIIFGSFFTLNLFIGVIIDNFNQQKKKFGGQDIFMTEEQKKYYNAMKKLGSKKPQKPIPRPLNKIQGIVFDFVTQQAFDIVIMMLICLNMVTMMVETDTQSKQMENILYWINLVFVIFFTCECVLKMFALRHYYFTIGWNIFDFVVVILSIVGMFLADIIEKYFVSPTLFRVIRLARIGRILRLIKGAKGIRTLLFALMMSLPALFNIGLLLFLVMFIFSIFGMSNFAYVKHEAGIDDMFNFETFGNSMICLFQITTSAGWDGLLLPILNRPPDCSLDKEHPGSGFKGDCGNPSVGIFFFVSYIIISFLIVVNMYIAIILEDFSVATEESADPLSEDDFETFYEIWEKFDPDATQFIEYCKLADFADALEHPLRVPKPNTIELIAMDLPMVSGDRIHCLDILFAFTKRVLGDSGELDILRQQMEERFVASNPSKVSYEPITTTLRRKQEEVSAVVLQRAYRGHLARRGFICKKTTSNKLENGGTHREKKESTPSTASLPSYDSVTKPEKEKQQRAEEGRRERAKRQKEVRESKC
T2 sequence (Q92913 1-192 isoform Q92913-2 partner): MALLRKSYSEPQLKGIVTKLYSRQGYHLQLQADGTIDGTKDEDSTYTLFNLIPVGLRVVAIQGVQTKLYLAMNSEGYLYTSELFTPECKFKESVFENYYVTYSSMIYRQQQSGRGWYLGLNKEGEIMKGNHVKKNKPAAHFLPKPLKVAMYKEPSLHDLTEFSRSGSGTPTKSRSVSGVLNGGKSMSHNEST
T1 sequence (Q9UQD0 whole entry): as the sequence (Q9UQD0 whole entry N1768D) above, with D1768N counted along it
T1 sequence (Q92913 1-192 isoform Q92913-2 partner): as the sequence (Q92913 1-192 isoform Q92913-2 partner) above

`Cc1cc(S(=O)(=O)Nc2cscn2)c(F)cc1N(C)[C@H]1CCN(Cc2ccccc2)C1` [NBI-921352] was tested, and the “effect on action-potential firing, pyramidal neurons” value ([1]; 0.25 µM NBI-921352) was “decreased the maximum firing rate; also recorded: reduced action-potential spiking”, the “WT Cortical pyramidal neurons APs/1s” value ([1]; 200 pA current injected) was 0 APs/1s and 12 APs/1s and 13 APs/1s and the “WT Cortical pyramidal neurons APs/1s” value ([1]; current injected 0 pA) was 0 APs/1s. For the same compound, the “WT Cortical pyramidal neurons APs/1s” value ([1]; current injected 20 pA) was 0 APs/1s, the “WT Cortical pyramidal neurons APs/1s” value ([1]; current injected 40 pA) was 0 APs/1s and the “WT Cortical pyramidal neurons APs/1s” value ([1]; current injected 60 pA, row) was 0 APs/1s and 1 APs/1s and 2 APs/1s. The “WT Cortical pyramidal neurons APs/1s” value ([1]; current injected 80 pA, row) was 0 APs/1s and 4 APs/1s and 6 APs/1s, the “WT Cortical pyramidal neurons APs/1s” value ([1]; current injected 100 pA, row) was 0 APs/1s and 6 APs/1s and 8 APs/1s and the “WT Cortical pyramidal neurons APs/1s” value ([1]; current injected 120 pA, row) was 0 APs/1s and 7 APs/1s and 9 APs/1s. For the same compound, the “WT Cortical pyramidal neurons APs/1s” value ([1]; current injected 140 pA, row) was 0 APs/1s and 8 APs/1s and 10 APs/1s, the “WT Cortical pyramidal neurons APs/1s” value ([1]; current injected 160 pA, row) was 0 APs/1s and 9 APs/1s and 12 APs/1s and the “WT Cortical pyramidal neurons APs/1s” value ([1]; current injected 180 pA, row) was 0 APs/1s and 11 APs/1s (2×). For the same compound, the “WT Cortical pyramidal neurons APs/1s” value ([1]; current injected 200 pA, row) was 0 APs/1s and 12 APs/1s and 13 APs/1s, the “WT Cortical pyramidal neurons APs/1s” value ([1]; current injected 220 pA, row) was 1 APs/1s and 13 APs/1s and 14 APs/1s and the “WT Cortical pyramidal neurons APs/1s” value ([1]; current injected 240 pA, row) was 3 APs/1s and 14 APs/1s and 15 APs/1s. For the same compound, the “WT Cortical pyramidal neurons APs/1s” value ([1]; current injected 260 pA, row) was 4 APs/1s and 15 APs/1s and 13 APs/1s, the “WT Cortical pyramidal neurons APs/1s” value ([1]; current injected 280 pA, row) was 4 APs/1s and 15 APs/1s and 13 APs/1s and the “WT Cortical pyramidal neurons APs/1s” value ([1]; current injected 300 pA, row) was 4 APs/1s and 17 APs/1s and 13 APs/1s. For the same compound, the “WT Cortical pyramidal neurons APs/1s” value ([1]; current injected 320 pA, row) was 5 APs/1s and 18 APs/1s and 13 APs/1s, the “WT Cortical pyramidal neurons APs/1s” value ([1]; current injected 340 pA, row) was 5 APs/1s and 19 APs/1s and 12 APs/1s and the “WT Cortical pyramidal neurons APs/1s” value ([1]; current injected 360 pA, row) was 6 APs/1s and 20 APs/1s and 12 APs/1s. For the same compound, the “WT Cortical pyramidal neurons APs/1s” value ([1]; current injected 380 pA, row) was 7 APs/1s (2×) and 21 APs/1s, the “WT Cortical pyramidal neurons APs/1s” value ([1]; current injected 400 pA, row) was 8 APs/1s and 22 APs/1s and 13 APs/1s and the “WT Cortical pyramidal neurons APs/1s” value ([1]; current injected 420 pA, row) was 7 APs/1s and 22 APs/1s and 5 APs/1s. For the same compound, the “WT Cortical pyramidal neurons APs/1s” value ([1]; current injected 440 pA, row) was 7 APs/1s and 23 APs/1s and 4 APs/1s, the “WT Cortical pyramidal neurons APs/1s” value ([1]; current injected -20 pA) was 0 APs/1s and the “Cumulative number of action potentials fired by each cell on increasing current injections” value ([1]; up to current injected 0 pA) was 0. For the same compound, the “Cumulative number of action potentials fired by each cell on increasing current injections” value ([1]; up to current injected 20 pA) was 0, the “Cumulative number of action potentials fired by each cell on increasing current injections” value ([1]; up to current injected 40 pA) was 0 and the “Cumulative number of action potentials fired by each cell on increasing current injections” value ([1]; up to current injected -20 pA) was 0. For the same compound, the IC50 (hNaV1.6) was 36 µM, the “hNav1.6 current in (352)/(Vehicle), Rested (-120mV), mean” value (shortened to “hNav1.6 current in (352)/(Vehicle)”) (hNaV1.6; -4 Log M) was 0.8706 and the “hNav1.6 current in (352)/(Vehicle)” value (hNaV1.6; -4.47713 Log M) was 0.4353. The “hNav1.6 current in (352)/(Vehicle)” value (hNaV1.6; -4.95425 Log M) was 0.1765, the “hNav1.6 current in (352)/(Vehicle)” value (hNaV1.6; -5.43133 Log M) was 0.09412 and the “hNav1.6 current in (352)/(Vehicle)” value (hNaV1.6; -5.90833 Log M) was -0.01176. For the same compound, the “hNav1.6 current in (352)/(Vehicle)” value (hNaV1.6; -6.3851 Log M) was -0.02353, the “hNav1.6 current in (352)/(Vehicle)” value (hNaV1.6; -6.86328 Log M) was 0.1176 and the “hNav1.6 current in (352)/(Vehicle)” value (hNaV1.6; -7.33724 Log M) was 0.05882. The “N1768D current in (352)/(Vehicle), Persistent, mean” value (from here on “N1768D current in (352)/(Vehicle)”) ([2]; -5 Log M) was 0.93, the “N1768D current in (352)/(Vehicle)” value ([2]; -5.47712 Log M) was 0.92 and the “N1768D current in (352)/(Vehicle)” value ([2]; -5.95424 Log M) was 0.91. The “N1768D current in (352)/(Vehicle)” value ([2]; -6.43136 Log M) was 0.87, the “N1768D current in (352)/(Vehicle)” value ([2]; -6.90848 Log M) was 0.63 and the “N1768D current in (352)/(Vehicle)” value ([2]; -7.38561 Log M) was 0.44. The “N1768D current in (352)/(Vehicle)” value ([2]; -7.86274 Log M) was 0.21 and the “N1768D current in (352)/(Vehicle)” value ([2]; -8.33989 Log M) was 0.
